Experimental data reported in US20020156236A1, “Binding sites for phosphotyrosine binding domains” (priority 1995, published 2002).
Where a SMILES comes first, the peptide text is derived from it.

Tests used:
[1] = biological target: T1, GST-PTB domain fusion protein (Homo sapiens, UniProt P29353); assay: Direct binding of biotinylated peptides to PTB domain (streptavidin-coupled alkaline phosphatase detection); details: 500 nM biotinylated peptide, FIG. 3
T1 construct: 100 ng of GST-PTB domain or GST-SH2 domain fusion protein were incubated; made in house; host or cells: Sf9 cells (recombinant baculovirus)
T1 sequence (P29353 156-339 limits assumed): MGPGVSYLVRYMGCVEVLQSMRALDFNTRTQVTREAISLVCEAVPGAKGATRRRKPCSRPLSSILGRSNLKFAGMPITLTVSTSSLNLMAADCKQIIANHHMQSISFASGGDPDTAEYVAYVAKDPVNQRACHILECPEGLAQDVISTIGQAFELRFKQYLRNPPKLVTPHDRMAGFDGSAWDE
Description: (§1) The PTB domain was immunoprecipitated and the washed pellet assayed for the presence of bound peptide with streptavidin-coupled alkaline phosphatase. […] See, Kavanaugh and Williams, supra.
Peptides were biotinylated during synthesis and HPLC purified. 100 ng of GST-PTB domain or GST-SH2 domain fusion protein were incubated in 1×hybridization buffer with 500 nM biotinylated phosphopeptide for 1 hour at 4° C., immunoprecipitated as described in Example 2, above, washed once, and the pellets incubated with 0.25 units of streptavidin-alkaline phosphatase for 5 minutes at 4° C. The pellets were washed twice more, incubated for 3 minutes at room temperature with 1 mg/ml p-nitrophenylphosphate in 100 mM glycine, pH 10.1, 1 mM ZnCl2 and 1 mM MgCl2. The absorbance was measured at 405 nm.

[2] = biological target: T2, PTB domain/c-erbB2 binding (GST-PTB domain of SHC; c-erbB2 from SKBR3 lysate) (Homo sapiens, UniProt P29353); assay: biochemical; details: for block of PTB/c-erbB2 interaction at one peptide concentration, in words: FIG. 2C, 300 nM peptides (legend says 500 nM)
T2 construct: GST-PTB domain fusion proteins were expressed from recombinant baculovirus in sf9 cells; made in house; host or cells: Sf9 cells (recombinant baculovirus) for GST-PTB; c-erbB2 endogenous in SKBR3 cell lysate
T2 sequence (P29353 156-341): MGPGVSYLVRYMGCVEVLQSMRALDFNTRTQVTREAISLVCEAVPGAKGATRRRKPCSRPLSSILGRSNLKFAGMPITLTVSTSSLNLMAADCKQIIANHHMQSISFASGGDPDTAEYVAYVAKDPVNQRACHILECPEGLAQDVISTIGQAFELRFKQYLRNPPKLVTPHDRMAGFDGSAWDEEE

[3] = biological target: T3, SHC PTB domain / pp145 derived from activated B cells (Homo sapiens, UniProt P29353); assay: Blocking of in vitro association of SHC PTB domain with pp145; format: binding
T3 sequence (P29353 156-339 limits assumed): T1 sequence (P29353 156-339 limits assumed)
From the text: as §1

[4] = biological target: T4, SH2 domain of SHC (GST-SH2 domain fusion protein) (Homo sapiens, UniProt P29353); assay: Direct binding of biotinylated peptides to SH2 domain (streptavidin-coupled alkaline phosphatase detection); details: 500 nM biotinylated peptide, FIG. 3
T4 construct: 100 ng of GST-PTB domain or GST-SH2 domain fusion protein were incubated
T4 sequence (P29353 488-579 limits assumed): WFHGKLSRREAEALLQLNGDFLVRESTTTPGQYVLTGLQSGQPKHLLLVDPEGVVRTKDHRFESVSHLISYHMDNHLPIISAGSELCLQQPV

[5] = approximate IC50, inhibition of PTB domain/c-erbB2 binding

Row | Compound | direct binding to PTB domain, in words [1] | IC50 ([2]; Apparent Inhibition (IC50)) [nM] | block of PTB/c-erbB2 interaction at one peptide concentration, in words [2] | IC50 [2, 5] [nM] | ability to block the PTB domain/c-erbB2 interaction after dephosphorylation ([2]; peptide dephosphorylated with tyrosine-specific phosphatases) | peptide concentration at which substantial inhibition is shown ([2]; varying peptide concentrations, FIG. 2B lower blot) [nM] | blocking of association of SHC PTB domain with pp145 [3] | binding to SH2 domain, in words [4] | IC50 compared with that of AFDNL(pY)(pY)WDQNS, in words [2] | IC50 ([2]; Affinity (IC50)) [nM]
1 | CC(C)C[C@H](NC(=O)[C@H](CC(N)=O)NC(=O)[C@H](CC(=O)O)NC(=O)[C@H](Cc1ccccc1)NC(=O)[C@H](C)NC(=O)[C@@H]1CCCN1C(=O)[C@H](CO)NC(=O)[C@H](Cc1ccccc1)NC(=O)[C@H](C)NC(=O)[C@@H]1CCCN1)C(=O)N[C@@H](Cc1ccc(OP(=O)(O)O)cc1)C(=O)N[C@@H](Cc1ccc(OP(=O)(O)O)cc1)C(=O)N[C@@H](Cc1c[nH]c2ccccc12)C(=O)N[C@@H](CC(=O)O)C(=O)N[C@@H](CCC(N)=O)C(=O)N[C@@H](CC(N)=O)C(=O)N[C@@H](CO)C(=O)N[C@@H](CO)C(=O)N[C@@H](CCC(=O)O)C(=O)N[C@@H](CCC(N)=O)C(=O)NCC(=O)O [PAFSPAFDNL (pY) (pY) WDQNSSEQG, PAFSPAFDNL(pY)(pY)WDQNSSEQG] (HELM PEPTIDE1{P.A.F.S.P.A.F.D.N.L.[O=C([C@H](Cc1ccc(OP(=O)(O)O)cc1)N[*:1])[*:2]].[O=C([C@H](Cc1ccc(OP(=O)(O)O)cc1)N[*:1])[*:2]].W.D.Q.N.S.S.E.Q.G}$$$$V2.0) | able to bind directly | 50 | completely block | ~50 | unable to block | 50 | blocks association | inability of the SH2 domain of SHC to bind | – | –
2 | CC(C)C[C@H](NC(=O)[C@H](CC(N)=O)NC(=O)[C@H](CC(=O)O)NC(=O)[C@H](Cc1ccccc1)NC(=O)[C@H](C)N)C(=O)N[C@@H](Cc1ccc(O)cc1)C(=O)N[C@@H](Cc1ccc(OP(=O)(O)O)cc1)C(=O)N[C@@H](Cc1c[nH]c2ccccc12)C(=O)N[C@@H](CC(=O)O)C(=O)N[C@@H](CCC(N)=O)C(=O)N[C@@H](CC(N)=O)C(=O)N[C@@H](CO)C(=O)O [AFDNLY (pY) WDQNS, AFDNLY(pY)WDQNS] (HELM PEPTIDE1{A.F.D.N.L.Y.[O=C([C@H](Cc1ccc(OP(=O)(O)O)cc1)N[*:1])[*:2]].W.D.Q.N.S}$$$$V2.0; N-terminus and C-terminus assumed) | – | 30 | completely block | ~30 | – | – | – | – | approximately equal | 30
